The subject of one data set is viruses. Kind of data set: prophylaxis and treatment of virus infections in animals. The data set is classed as in vivo, mice or guinea pigs. Conditions: tests on animals. From the text:
In these animal tests, animals, such as mice or guinea pigs, are infected with the most varied types of viruses at a dose that is lethal to all or the great majority of the untreated (control) animals, for example LD80-90, and the course of the infection is observed in the untreated control animals in comparison with animals treated with one of the above-mentioned compounds or a salt thereof before, simultaneously with or after infection.
These compounds of the formula I are effective in as low a dosage range as from 0.0001 mg/kg to 0.1 mg/kg in the above-mentioned test in mice.

Data set [1] is described as follows: test for pyrogenity in rabbits (European Pharmacopoeia). The following applies: 5 mg/kg i.v. Format: in vivo. The method, then:
The test for pyrogenity can be carried out in rabbits in accordance with the instructions given in the European Pharmacopoeia, Volume 2, pages 56 to 59 (1971). According to this test, for example N-propionyl- desmethylmuramyl-L-alanyl-D-isoglutaminyl-L-alanine-3-{2-[2-(2,6-dichlorophenylamino)-phenyl]-acetylamino}-2-hydroxypropylamide is not pyrogenic at a dose of 5 mg/kg i.v.

Turning to “(1α,β),4,6-tri-O-acetyl-N-propionyldesmethylmuramyl-L-alanyl-D- isoglutaminyl-L-alanine-3-[d-2-(6-methoxy-2-naphthyl]-propionylamino]-2-acetoxypropylamide [Example 21]”, the “suitability for prophylaxis and treatment of virus infections” value in the data set on viruses was “outstandingly suitable for the prophylaxis and treatment of virus infections”. As for `CCC(=O)N(C1O[C@H](CO)[C@@H](O)[C@H](OCC(=O)O)[C@H]1N)[C@@H](C)C(=O)N[C@H](CCC(=O)N[C@@H](C)C(=O)NCC(O)CNC(=O)Cc1ccccc1Nc1c(Cl)cccc1Cl)C(N)=O` (stereo partly drawn) [Example 6, N-propionyldesmethylmuramyl-L-alanyl-D-isoglutaminyl-L-alanine-3-{2-[2-(2,6-dichlorophenylamino)-phenyl]acetylamino}-2-hydroxypropylamide], the pyrogenity entry in data set [1] is reported as “not pyrogenic”.

For the origin of these results see US4711879A, “Acylated sugar derivatives, processes for their manufacture, and their use” (Ciba-Geigy Corporation, priority 1984, dated 1987).
